Results on eight molecules are retold here after patent US10463656B2, “Methods and compositions for prevention of feedlot bovine respiratory disease” (Iowa State University Research Foundation, Inc., priority 2017, dated 2019).

Entries after “also recorded” stand apart in the source; their conditions may differ.

For one data set, the target named is T1, Bovine PAFR (Bos taurus, UniProt Q9TTY5).
T1 construct: expressed in transfected cells; host or cells: BHK cells, transient transfection with lipofectamine, pcDNA3.3-PAFR
T1 sequence (Q9TTY5 whole entry): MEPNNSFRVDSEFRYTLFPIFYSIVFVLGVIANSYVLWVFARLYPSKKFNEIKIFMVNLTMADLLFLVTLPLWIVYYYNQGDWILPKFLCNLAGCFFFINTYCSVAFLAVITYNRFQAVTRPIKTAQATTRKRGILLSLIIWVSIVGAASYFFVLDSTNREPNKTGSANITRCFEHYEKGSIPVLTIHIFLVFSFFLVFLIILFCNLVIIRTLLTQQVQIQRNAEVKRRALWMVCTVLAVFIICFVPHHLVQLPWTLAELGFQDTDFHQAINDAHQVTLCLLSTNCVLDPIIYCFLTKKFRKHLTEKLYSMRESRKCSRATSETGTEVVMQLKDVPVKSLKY
The data set can be described thus: PAF-mediated intracellular calcium accumulation in BHK cells transiently expressing bovine PAFR. The format is cell-based. The settings on record: 10 nM PAF, transfected BHK cells; for block of bovine PAFR function by antihistamines, PAF-mediated intracellular calcium accumulation (FIG. 12): antihistamine 1-100 nM; for block of bovine PAFR function, PAF-mediated intracellular calcium accumulation (FIG. 11): antagonist 1-100 nM. For orientation: Calcium assays in cells follow changes in intracellular calcium, usually with a dye or a luminescent sensor.

Data set [1] concerns the target T2, Bovine H1 histamine receptor (Bos taurus, UniProt P30546).
T2 construct: expressed in transfected cells; host or cells: BHK cells, transient transfection with lipofectamine, pcDNA3.3
In words: Histamine-mediated intracellular calcium accumulation in BHK cells transiently expressing bovine H1 histamine receptor. The settings on record: 10 nM histamine; transfected BHK cells. It counts as cell-based. The procedure:
Bovine H1 histamine receptor was cloned into pcDNA3.3 expression vector and transiently expressed in BHK tissue culture cells using lipofectamine as per Carlson et al. Ten nM histamine was then added to the cells in the presence of various concentrations of rupatadine, tripelennamine, lexipafant, or WEB2086. Intracellular calcium accumulation was monitored in the transfected cells using a commercially available kit (Abcam, Cambridge, Mass.). IC50 values were then determined by identifying the concentration of the antagonist that reduced the maximal PAF-mediated intracellular calcium accumulation by 50%. […] Therefore, as showing in Examples 11 and 12, rupatadine is the only antihistamine that can also block the function of PAFR.

Data set [2] relates to BRD. The data set can be described thus: BRD prevention in high-risk calves, treatment methods of rupatadine (Example 14). The format is in vivo. How it is done: In order to test various treatment methods of rupatadine, 25 high-risk calves were transported to a new farm. Seven calves were used as controls, six were given rupatadine as a single oral dose of 1 mg/kg, six were given rupatadine as a single subcutaneous injection of 7 mg/kg, six calves were given weekly subcutaneous injections of 7 mg/kg rupatadine. The animals were observed over the next five weeks twice daily for BRD. Any animal who required antibiotics for treating the clinical signs of BRD was classified as having BRD.
All the calves (100%, n=6 of 6) eventually developed BRD between days three and 31. […] The calf that did develop BRD did so on day 31.

In data set [3] the test system is BRD. In words: BRD prevention at the feedlot, drug in the feed. The format is in vivo, calves. How it is done:
An initial study was performed to confirm BRD prevention at the feedlot using an anti-inflammatory composition comprising rupatadine, the oral inhibitor of PAFR. A total of 18 calves were evaluated with the treatment arm receiving a dosage rate of 0.3 mg/kg. Calves were provided the drug in the feed during the first three weeks after entering the feedlot which is within the high risk 6-week period following transfer of the animal. Calves were purchased from a location in Joplin, Mo. having an overall incidence of BRD at >40% which is higher than the standard incidence of about 10% in cattle.
A further study was performed to confirm BRD prevention at the feedlot using the anti-inflammatory composition comprising rupatadine. The same methodology of Example 5 was employed with the modification of the number of calves and the dosage rate. The dosage rate was increased to 0.6 mg/kg. The number of calves were increased to 24 in total. The results are consistent to the first trial, including: 41.7% of treated calves (n=5 of 12) developed BRD whereas 100% of untreated calves (n=12 of 12) developed BRD.
A further study was performed to confirm BRD prevention at the feedlot using the anti-inflammatory composition comprising rupatadine as outlined in Example 5 with the modification of the number of calves (20 total) and the dosage rate. The dosage rate increased to 1.2 mg/kg.

In data set [4] the target is T3, PAFR (Bos taurus, UniProt Q9TTY5).
T3 construct: endogenous in cells; host or cells: whole blood cells of cattle (ex vivo)
T3 sequence (Q9TTY5 whole entry): as above
The data set can be described thus: Stress hormone- and commensal oral bacteria-mediated second messenger accumulation in calf blood cells. The format is cell-based, cattle. The following applies: 500 nM inhibitor, blood of animals with increased PAFR expression, cortisol 5 ng/mL, norepinephrine 100 pg/mL, 10^6 CFUs/mL bacteria, six hours 37°C. An excerpt: A PAFR inhibitor blocks the stress hormone- and commensal oral bacteria-mediated second messenger accumulation in calf blood cells that have an increase in expression of PAFR. Studies presented in Example 1 and FIG. 1 were repeated with the inclusion of the compositions comprising the anti-inflammatory drug rupatadine according to the invention. Blood was drawn from 10 animals that have an increase in PAFR expression (those in which an RT-PCR amplicon was visible after 10-15 cycles) and 10 animals with “normal” or no PAFR expression (those in which an RT-PCR amplicon was visible after 30-45 cycles).
Approximately 5 mL of whole blood was collected from the jugular or caudal vein of non-transported juvenile and adult cattle. Blood was placed in EDTA tubes, aliquoted, and cortisol (5 ng/mL) and norepinephrine (100 pg/mL) were added to some of the blood. The next day, blood samples were incubated with 0 or 10^6 CFUs/mL of commensal oral bacteria, 0 or 500 nM of the inhibitor, and a second messenger reagent for six hours at 37° C. with gentle rolling. After the six-hour incubation period, blood samples were analyzed for the production of second messengers. Data was standardized based on second messenger production in the presence of vehicle. […] Fifty ng of total RNA was then subjected to semi-quantitative RT-PCR to confirm the PAFR expression status of each animal.

The test system of data set [5] is PAFR. The data set can be described thus: PAFR level in blood of treated calves by qRT-PCR (Example 14). It counts as in vivo. The following applies: weekly depot injection versus control and other rupatadine treatments. The procedure:
Blood was extracted from all 25 calves was extracted weekly and the level of PAFR was assayed using qRT-PCR and the theoretical copies of transcript/200 ng of total RNA. […] However, it dropped the most in the weekly depot injection calves during the last three weeks of observations.

Data set [6] in a line: Pharmacotherapeutic study, blood levels after oral administration to feedlot calves. It counts as in vivo. The settings on record: daily oral doses of 30 mg/animal for 5 days; six calves. The procedure:
A pharmacotherapeutic study was completed to confirm the PAFRi survives the rumen and reaches therapeutic blood and lung concentrations following oral administration to feedlot calves. Six calves were purchased and given daily oral doses of 30 mg/animal of the drug rupatadine for 5 days. Blood was drawn five times on day one and twice per day thereafter to measure the blood levels of rupatadine.

Data set [7] has as its system BRD. In words: BRD prevention in high-risk calves, weekly injections (Example 13). The settings on record: after five weeks of weekly subcutaneous 7 mg/kg; BRD(+) calves usually >25%. It counts as in vivo. How it is done:
Twenty-five high-risk BRD calves were transported to a new barn and five each were assigned to different treatment groups: no treatment, weekly subcutaneous injections of 7 mg/kg of rupatadine, weekly injections of 1 mg/kg tripelennamine, weekly injections of 10 mg/kg WEB2086, and weekly injections of 1 mg/kg tripelennamine and 10 mg/kg WEB2086. The animals were observed over the next five weeks twice daily for BRD. Any animal who required antibiotics for treating the clinical signs of BRD was classified as having BRD. […] Four of the five (80%, n=4 of 5) animals receiving tripelennamine only developed BRD.
After the five weeks, the rupatadine treated animals were euthanized and the lungs removed and necropsied. Three veterinarians then assessed the lungs for signs of disease, such as abscessation or consolidation. […] Lung pathology in BRD(+) calves is usually >25%, and of the rupatadine treated animals, there was only about 5-10% disease identified by the veterinarians.

T2 sequence (P30546 whole entry): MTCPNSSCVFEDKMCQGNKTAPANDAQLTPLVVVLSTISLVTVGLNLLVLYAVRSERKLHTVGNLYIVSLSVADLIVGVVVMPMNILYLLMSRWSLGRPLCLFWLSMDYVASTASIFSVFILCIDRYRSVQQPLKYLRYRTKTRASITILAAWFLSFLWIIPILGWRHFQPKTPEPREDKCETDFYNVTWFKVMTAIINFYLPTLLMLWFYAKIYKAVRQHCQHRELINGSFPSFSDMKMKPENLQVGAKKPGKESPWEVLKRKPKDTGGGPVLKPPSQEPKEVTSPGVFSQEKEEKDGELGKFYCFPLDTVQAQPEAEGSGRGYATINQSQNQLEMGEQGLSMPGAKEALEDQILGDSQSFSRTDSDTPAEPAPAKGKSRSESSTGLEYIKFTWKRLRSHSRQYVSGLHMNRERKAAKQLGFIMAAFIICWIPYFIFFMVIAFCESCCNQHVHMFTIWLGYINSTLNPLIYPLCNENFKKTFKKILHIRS
Protocol for Bovine PAFR: Bovine PAFR was cloned into pcDNA3.3 expression vector and transiently expressed in BHK tissue culture cells using lipofectamine as per Carlson et al., J Biol Chem, 271:23146053 (1996), herein incorporated by reference in its entirety. Ten nM PAF was then added to the cells in the presence of various concentrations of various antagonists: rupatadine, lexipafant (as in Kingsnorth, et al., BJS, 82:1414-20 (1995), herein incorporated in its entirety), and WEB2086 a PAF antagonist which has not been commercialized and/or used in humans to date (as in Casals-Stenzel et al., J of Pharmacolo Experimental Therapeutics, 241:974-81 (1987), herein incorporated in its entirety), as well as tripelennamine, a bovine-approved antihistamine at concentrations ranging between 1-100 nM. Intracellular calcium accumulation was monitored in the transfected cells using a commercially available kit (Abcam, Cambridge). IC50 values were then determined by identifying the concentration of the antagonist that reduced the maximal PAF-mediated intracellular calcium accumulation by 50%.
Various antihistamines were also tested. […] Intracellular calcium accumulation was monitored in the transfected cells using a commercially available kit (Abcam, Cambridge). IC50 values were then determined by identifying the concentration of the antagonist that reduced the maximal PAF-mediated intracellular calcium accumulation by 50%.

For `CC(CN1c2ccccc2Sc2ccccc21)N(C)C` (stereo not shown) [promethazine], at Bovine PAFR, the “block of bovine PAFR function by antihistamines, PAF-mediated intracellular calcium accumulation (FIG. 12)” value is “do not block”.

In the case of `Cc1cncc(CN2CCC(=C3c4ccc(Cl)cc4CCc4cccnc43)CC2)c1` [rupatadine, 8-chloro-11-[1-[(5-methyl-3-pyridyl)methyl]-4-piperidyliden]-6,11-dihydro-5H-benzo[5,6]cyclohepta[1,2-b]pyridine], the “block of the function of the H1 histamine receptor, intracellular calcium accumulation (FIG. 13)” value in data set [1] is “able to block”. Further, in the data set on BRD [2] (weekly long-acting injections of 7 mg/kg), the “high risk animals that did not develop BRD” value is given as “five out of six”. Moreover, the “animals that developed BRD” value in the data set with BRD [2] (weekly subcutaneous injections of 7 mg/kg, five-week observation, n=6) was found to be 16.7%. The “day on which the calf developed BRD” value in the data set with BRD [2] (weekly subcutaneous injections of 7 mg/kg, the one calf that developed BRD) amounted to 31 days. The “treated calves that developed BRD” value is recorded as 50% with BRD [3] (0.3 mg/kg in the feed, first three weeks after entering the feedlot, 8 treated calves, within 5 weeks); 41.7% in the data set with BRD [3] (0.6 mg/kg in the feed, n=5 of 12); 33.3% with BRD [3] (1.2 mg/kg in the feed, n=3 of 10). The “stress hormone- and commensal oral bacteria-mediated second messenger accumulation” value at PAFR [4] is reported as “blocks”; on PAFR [4] (listed as PAFRi), “indistinct from normal or non-expressing samples”. In the data set with PAFR [5], the “PAFR expression over a five-week period” value was “greatest decrease in PAFR expression”. Besides, the “blood levels of rupatadine (FIG. 9)” value in data set [6] is on record as “reaches therapeutic concentrations more rapidly than in humans”. For the same molecule, the “block of bovine PAFR function, PAF-mediated intracellular calcium accumulation (FIG. 11)” value on Bovine PAFR is “blocked”. In addition, the “block of bovine PAFR function by antihistamines, PAF-mediated intracellular calcium accumulation (FIG. 12)” value on Bovine PAFR is on record as “able to block PAFR function; also recorded: blocks”. In the data set on BRD [7], the “lung disease identified by the veterinarians at necropsy” value is on record as 5-10%.

With `CN(C)CCOC(c1ccccc1)c1ccccc1` [diphenhydramine], the “block of bovine PAFR function by antihistamines, PAF-mediated intracellular calcium accumulation (FIG. 12)” value at Bovine PAFR is reported as “do not block”.

With `CCOC(=O)[C@H](CC(C)C)N(C)S(=O)(=O)c1ccc(Cn2c(C)nc3cnccc32)cc1` [lexipafant], the “block of the function of the H1 histamine receptor, intracellular calcium accumulation (FIG. 13)” value in data set [1] is reported as “fail to black”. Moreover, the “block of bovine PAFR function, PAF-mediated intracellular calcium accumulation (FIG. 11)” value on Bovine PAFR is recorded as “blocked”.

Consider `Cc1nnc2n1-c1sc(CCC(=O)N3CCOCC3)cc1C(c1ccccc1Cl)=NC2` [WEB2086], for which, in data set [1], the “block of the function of the H1 histamine receptor, intracellular calcium accumulation (FIG. 13)” value is recorded as “fail to black”. Moreover, on Bovine PAFR, the “block of bovine PAFR function, PAF-mediated intracellular calcium accumulation (FIG. 11)” value is listed as “blocked”.

As to `COc1ccc(CN(CCN(C)C)c2ccccn2)cc1` [pyrilamine], the “block of bovine PAFR function by antihistamines, PAF-mediated intracellular calcium accumulation (FIG. 12)” value at Bovine PAFR is reported as “do not block”.

As to `CN(C)CCN(Cc1ccccc1)c1ccccn1` [tripelennamine], the “block of the function of the H1 histamine receptor, intracellular calcium accumulation (FIG. 13)” value in data set [1] was “able to block”. On Bovine PAFR, the “block of bovine PAFR function, PAF-mediated intracellular calcium accumulation (FIG. 11)” value is recorded as “not blocked” and the “block of bovine PAFR function by antihistamines, PAF-mediated intracellular calcium accumulation (FIG. 12)” value is “do not block”.

`OCCOCCN1CCN(C(c2ccccc2)c2ccc(Cl)cc2)CC1` (stereo not shown) [hydroxyazine]: the “block of bovine PAFR function by antihistamines, PAF-mediated intracellular calcium accumulation (FIG. 12)” value at Bovine PAFR is “do not block”.
